From article PMC3163471 (MedChemComm, 2011) come the findings set out here.

In this assay the test system is breast cancer cell lines. The assay can be described thus: Antiproliferative activity, cell line not given. It counts as cell-based, human. As to conditions: text on structure-activity relationship, Tables 1 and 2.

With “H-Arg-Pro-[3-amino-3(1-napthyl)-propionic acid]-Tyr-OH [Compound 13]”, the “Antiproliferative activity in words, compared with compound 5 or the parent” value was “activity was lost”.

On to “H-Arg-[3-amino-3(1-napthyl)-propionic acid]-Asp-OH [Compound 7]”, for which the “Antiproliferative activity in words, compared with compound 5 or the parent” value was “loss of activity”.

Turning to “H-Arg-[3-amino-3(1-napthyl)-propionic acid]-Tyr-OH [Compound 6]”, the “Antiproliferative activity in words, compared with compound 5 or the parent” value is reported as “loss of activity”.

“H-Arg-[3-amino-3(biphenyl)-propionic acid]-Phe-OH [Compound 10]”: the “Antiproliferative activity in words, compared with compound 5 or the parent” value was “retained the activity and specificity”.

With “H-Lys-[3-amino-3(biphenyl)-propionic acid]-Phe-OH [Compound 11]”, the “Antiproliferative activity in words, compared with compound 5 or the parent” value is reported as “loss of activity”.
